Patent publication US9452154B2, “Methods for treating HCV” (Gilead Sciences, Inc., priority 2010, dated 2016)
Values joined by “and” are separate entries in the source; they are usually repeats but may differ in a detail not shown here. Equal entries are not always repeated. Where two headings read alike, the source gives them in different places. Marks after values point to notes of the source that are not given here.

Experiments:
HCV 1b replicon system = assay: Biological Example 5: antiviral combination studies with Compound 6 (MacSynergy II); type: cell-based; conditions: in combination with Compound 6
[1] = tested on: GT1b and GT1a mutant replicons; assay: Biological Example 8: summary of cross resistance of mutant replicons; type: cell-based, HCV
Protocol: (§1) GT1b and GT1a replicons carrying Renilla Luciferase reporter were used to generate the mutant replicons. The mutations were introduced into the replicon construct by site-directed mutagenesis and confirmed by sequencing. Mutant replicon RNAs were generated from DNA by in vitro transcription and transfected into Huh-7 Lunet or C1 cells
(§2) Compounds were serially diluted 1:3 in 100% DMSO (Sigma). These serial dilutions were added to the cells at a 1:200 dilution to achieve a final concentration of 0.5% DMSO in a total volume of 200 μL. […] EC50 values were calculated using Prism.
(§3) For comparison, a fold change of 0-3 is considered “sensitive”, a fold change of 3-10 is considered “low”, a fold change of 10-50 is considered “medium” and a fold change of greater than […] is considered “high”.

[2] = tested on: Huh-7 cells carrying a HCV genotype 1a replicon; assay: Biological Example 3: cytotoxicity (calcein AM), CC50; type: cell-based; conditions: HCV genotype 1a replicon cells; IFN-α in Units (U) per milliliter (mL)
Protocol: The HCV replicon assay was a multiplex assay which can assess both cytotoxicity and anti-replicon activity from the same well. The CC50 assay was performed first.
The cytotoxicity effect was determined by calcein AM conversion to fluorescent product. The percent cytotoxicity was calculated by equation 1:
(§4) [formula] where XC is the fluorescence signal from the compound-treated well; MB is the average fluorescence signal from puromycin-treated wells; MD is the average fluorescence signal from DMSO-treated wells. The anti-HCV replication activity was determined by the luminescence signal generated from the reporter renilla luciferase of the HCV replicon. The percent inhibition on HCV replicon was calculated using equation 1, where XC is the luminescence signal from compound-treated well; MB is average luminescence signal from the ITMN-191-treated wells; MD is the average luminescence signal from DMSO-treated wells.
(§5) Both CC50 and EC50 values were obtained using Pipeline Pilot 5.0 software package (Accelrys, San Diego, Calif.) by nonlinear regression fitting of experimental data to equation 2: […]

HCV genotype 1a replicon [3] = assay: Biological Example 3: HCV genotype 1a replicon assay, EC50; type: cell-based; conditions: IFN-α in Units (U) per milliliter (mL)
Protocol: The HCV genotype 1a replicon cell line used in this study was described previously. The cells were grown in cell culture medium containing Dulbecco's Modified Eagle Medium (DMEM) with GlutaMAX (Gibco, Carlsbad, Calif., Cat#10569-044), supplemented with 10% FBS (HyClone, Logan, Utah, Cat#SH30071.03), 100 Units/mL Penicillin, 100 μg/mL Streptomycin (Gibco, Carlsbad, Calif., Cat#15140-122), and 0.1 mM non-essential amino acids (Gibco, Carlsbad, Calif., Cat#11140-050). Replicon cells were maintained in 0.5 mg/mL Geneticin (Invitrogen, Carlsbad, Calif., Cat#10131-035) to prevent the loss of HCV replicon. The cells were passaged every 3-4 days before reaching confluency.
as §4, §5

[4] = tested on: NS3 GT1a mutant replicons; type: cell-based, HCV
Protocol: as §1, §2, §3

[5] = tested on: NS3 GT1b mutant replicons; type: cell-based, HCV
Protocol: as §1, §2, §3

[6] = tested on: Huh-7 cells carrying a HCV genotype 1a replicon; assay: Biological Example 3: cytotoxicity in combination studies (MacSynergy II); conditions: in combination with Compound 4
HCV genotype 1a replicon [7] = assay: Biological Example 3: antiviral combination studies with Compound 4 (MacSynergy II); conditions: in combination with Compound 4

IFN-α [reference compound]
Antagonism Volume (HCV 1b replicon system): 0.0 ± 0.0 nM^2 | Interaction (HCV 1b replicon system): Minor Synergy | Synergy Volume (HCV 1b replicon system): 32 nM^2 and 32 ± 1.4 nM^2 | susceptibility of mutants ([1]; all single NS3 PI-resistant mutants): full susceptibility | susceptibility of mutants ([1]; triple class mutants that confer resistance to PI, NS5A and Compound 1): susceptible | CC50 [2]: >50^b U/mL | EC50 (HCV genotype 1a replicon [3]): 1.4 ± 0.3^b U/mL | fold change in EC50 vs wild-type GT1a ([4]; mutant A156T): 0.1 fold | fold change in EC50 vs wild-type GT1a ([4]; mutant D168A): 1.4 fold | fold change in EC50 vs wild-type GT1a ([4]; mutant D168E): 2.1 fold | fold change in EC50 vs wild-type GT1a ([4]; mutant D168G): 0.8 fold | fold change in EC50 vs wild-type GT1a ([4]; mutant D168H): 0.9 fold | fold change in EC50 vs wild-type GT1a ([4]; mutant D168N): 1.1 fold | fold change in EC50 vs wild-type GT1a ([4]; mutant D168V): 1.0 fold | fold change in EC50 vs wild-type GT1a ([4]; mutant D168Y): 1.2 fold | fold change in EC50 vs wild-type GT1a ([4]; mutant R155I): 0.6 fold | fold change in EC50 vs wild-type GT1a ([4]; mutant R155K): 0.7 fold | fold change in EC50 vs wild-type GT1a ([4]; mutant R155K + L31M): 0.2 fold | fold change in EC50 vs wild-type GT1a ([4]; mutant R155K + M28T): 1.1 fold | fold change in EC50 vs wild-type GT1a ([4]; mutant R155K + Q30H + Y448H): 1.9 fold | fold change in EC50 vs wild-type GT1a ([4]; mutant R155K + Q30R): 1.6 fold | fold change in EC50 vs wild-type GT1a ([4]; mutant R155K + Y93H): 0.3 fold | fold change in EC50 vs wild-type GT1a ([4]; mutant R155K + Y488H (second line, r26)): 0.7 fold | fold change in EC50 vs wild-type GT1a ([4]; mutant R155M): 0.3 fold | fold change in EC50 vs wild-type GT1a ([4]; mutant R155S): 0.1 fold | fold change in EC50 vs wild-type GT1a ([4]; mutant R155T): 0.2 fold | fold change in EC50 vs wild-type GT1a ([4]; mutant R155W): 0.6 fold | fold change in EC50 vs wild-type GT1a ([4]; mutant R155k + Q30H): 1.4 fold | fold change in EC50 vs wild-type GT1b ([5]; mutant A156D): 0.6 fold | fold change in EC50 vs wild-type GT1b ([5]; mutant A156G): 1.1 fold | fold change in EC50 vs wild-type GT1b ([5]; mutant A156T): 0.8 fold | fold change in EC50 vs wild-type GT1b ([5]; mutant A156V): 0.9 fold | fold change in EC50 vs wild-type GT1b ([5]; mutant D168A): 0.9 fold | fold change in EC50 vs wild-type GT1b ([5]; mutant D168E): 0.9 fold | fold change in EC50 vs wild-type GT1b ([5]; mutant D168E + L31V + Y448H): 0.7 fold | fold change in EC50 vs wild-type GT1b ([5]; mutant D168E + Y93H + Y448H): 0.4 fold | fold change in EC50 vs wild-type GT1b ([5]; mutant D168G): 0.6 fold | fold change in EC50 vs wild-type GT1b ([5]; mutant D168H): 0.8 fold | fold change in EC50 vs wild-type GT1b ([5]; mutant D168N): 1.0 fold | fold change in EC50 vs wild-type GT1b ([5]; mutant D168T): 0.9 fold | fold change in EC50 vs wild-type GT1b ([5]; mutant D168V): 1.5 fold | fold change in EC50 vs wild-type GT1b ([5]; mutant D168V + L31V + Y448H): 0.5 fold | fold change in EC50 vs wild-type GT1b ([5]; mutant D168V + Y93H + Y448H): 0.6 fold | fold change in EC50 vs wild-type GT1b ([5]; mutant D168Y): 1.3 fold | fold change in EC50 vs wild-type GT1b ([5]; mutant L31V + D168E): 1.3 fold | fold change in EC50 vs wild-type GT1b ([5]; mutant L31V + D168V): 1.2 fold | fold change in EC50 vs wild-type GT1b ([5]; mutant R155C): 0.7 fold | fold change in EC50 vs wild-type GT1b ([5]; mutant R155G): 1.1 fold | fold change in EC50 vs wild-type GT1b ([5]; mutant R155K): 1.5 fold | fold change in EC50 vs wild-type GT1b ([5]; mutant R155L): 1.1 fold | fold change in EC50 vs wild-type GT1b ([5]; mutant R155Q): 0.6 fold | fold change in EC50 vs wild-type GT1b ([5]; mutant R155W): 0.5 fold | fold change in EC50 vs wild-type GT1b ([5]; mutant Y93H + D168E): 1.1 fold | fold change in EC50 vs wild-type GT1b ([5]; mutant Y93H + D168V): 0.7 fold | Antagonism Volume (cytotoxicity) [6]: −7 ± 13 nM^2% | Interaction (cytotoxicity) [6]: Additivity (Additivity: ≦25 and >−25 nM^2%) | Synergy Volume (cytotoxicity) [6]: 8 ± 12 nM^2% | Antagonism Volume (HCV genotype 1a replicon [7]): 0 ± 0 nM^2% | Interaction (HCV genotype 1a replicon [7]): Additivity (Additivity: ≦25 and >−25 nM^2%) | Synergy Volume (HCV genotype 1a replicon [7]): 12 ± 6 nM^2%
